Laboratory results: US20220017512A1 (SHANGHAI ENNOVABIO PHARMACEUTICALS CO., LTD., priority 2018, published 2022)
Counter-ions that a name gives are not always drawn.

Assays:
Format in all cases: biochemical
[1] = target: T1, Recombinant human TRKB (Homo sapiens, UniProt Q16620); assay: In vitro activity test on TRKB kinase (HTRF KinEASE TK); settings: 4.77 μM ATP, 50 min
T1 construct: purchased Carna Biosciences
In short: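 Recombinant human TRKB (0.037 ng/μL) phosphorylated 1 μM biotinylated TK substrate at 4.77 μM ATP, 5 mM MgCl2, 1% DMSO, 50 min at room temperature; compounds 1 μM–0.05 nM. HTRF KinEASE detection overnight; 665/620 ratio converted to inhibition and IC50 from 4-parameter fit.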

[2] = target: T2, Recombinant human TRKC (Homo sapiens, UniProt Q16288); assay: In vitro activity test on TRKC kinase (HTRF KinEASE TK); settings: 25.64 μM ATP, 40 min
T2 construct: purchased Carna Biosciences
In short: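 Recombinant human TRKC (0.037 ng/μL) with 1 μM biotinylated TK substrate, 25.64 μM ATP, 5 mM MgCl2, 1 mM DTT, 40 min at room temperature; compound 1 μM to 0.05 nM, 1% DMSO. HTRF 665/620 ratio after overnight detection; IC50 from 4-parameter fit.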

[3] = target: T3, recombinant human TRKA (G667C) (Homo sapiens, UniProt P04629, G667C); assay: In vitro activity test on mutant TRKA (G667C) (HTRF KinEASE TK); settings: 5.5 μM ATP, 30 min
T3 construct: purchased SignalChem
Description: Biological Test Example 2 In Vitro Activity Test on Mutant TRKA (G595R), TRKA (G667C) and TRKC (G623R)
The recombinant human TRKA (G595R), TRKA (G667C) and TRKC (G623R) proteins were purchased from SignalChem. HTRF kinEASE TK kit was purchased from CisbioBioassays. Synergy Neo 2 of Biotek was used to read the plate.
The tested compound was subjected to 4-fold serial dilution to reach a final concentration of 1 μM to 0.004 nM (10 concentrates), duplicates for each concentration; and 1% DMSO was present in the detection reaction.
0.026 ng/μL TRKA (G667C) kinase, 1 μM TK Substrate-biotin polypeptide substrate, 5.5 μm ATP, 1× enzymatic buffer, 5 mM MgCl2, and 1 mM DTT. The detection plate was White Proxiplate 384-Plus plate (PerkinElmer), and incubated at room temperature for 30 min, the assay volume was 10 μL.
10 μL of detection reagent was added to the plate (containing 0.125 μM SA-XL665 and 5 μL 1×TK-Antibody) and incubated overnight at room temperature, and Synergy Neo 2 was used to read the plate.
The value of 665/620 Ratio minus the value of negative control wells without enzyme, then the obtained value was converted according to the following formula into inhibition rate (%)=(1−Ratiotest/Ratiomax)×100%. Ratiomax was a positive control without tested compound, and Ratiotest was the value of each concentration of different compounds. IC50 (nM) data was obtained by 4 parameter curve fitting (see Table 1).

[4] = target: T4, recombinant human TRKA (G595R) (Homo sapiens, UniProt P04629, G595R); assay: In vitro activity test on mutant TRKA (G595R) (HTRF KinEASE TK); settings: 4.5 μM ATP, 30 min
T4 construct: purchased SignalChem
In short: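 HTRF KinEASE TK format: 0.12 ng/μL recombinant TRKA (G595R), 1 μM biotinylated TK substrate, 4.5 μM ATP, 5 mM MgCl2, 1 mM DTT, 1% DMSO, 30 min at room temperature; detection overnight. IC50 from 10-point 4-fold series (1 μM to 0.004 nM, duplicates), 665/620 ratio, 4-parameter fit.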

[5] = target: T5, Recombinant human TRKA (Homo sapiens, UniProt P04629); assay: In vitro activity test on TRKA kinase (HTRF KinEASE TK); settings: 14.68 μM ATP, 40 min
T5 construct: purchased Carna Biosciences
In short: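 Reaction: 0.2 ng/μL TRKA, 1 μM biotinylated TK substrate, 14.68 μM ATP, 5 mM MgCl2, 1 mM DTT, 1% DMSO, 40 min at room temperature. Compounds tested at 1 μM to 0.05 nM (10-point, 3-fold, duplicate). HTRF 665/620 ratio converted to % inhibition versus no-compound control; IC50 by 4-parameter fit.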

T5 sequence (P04629 33-796): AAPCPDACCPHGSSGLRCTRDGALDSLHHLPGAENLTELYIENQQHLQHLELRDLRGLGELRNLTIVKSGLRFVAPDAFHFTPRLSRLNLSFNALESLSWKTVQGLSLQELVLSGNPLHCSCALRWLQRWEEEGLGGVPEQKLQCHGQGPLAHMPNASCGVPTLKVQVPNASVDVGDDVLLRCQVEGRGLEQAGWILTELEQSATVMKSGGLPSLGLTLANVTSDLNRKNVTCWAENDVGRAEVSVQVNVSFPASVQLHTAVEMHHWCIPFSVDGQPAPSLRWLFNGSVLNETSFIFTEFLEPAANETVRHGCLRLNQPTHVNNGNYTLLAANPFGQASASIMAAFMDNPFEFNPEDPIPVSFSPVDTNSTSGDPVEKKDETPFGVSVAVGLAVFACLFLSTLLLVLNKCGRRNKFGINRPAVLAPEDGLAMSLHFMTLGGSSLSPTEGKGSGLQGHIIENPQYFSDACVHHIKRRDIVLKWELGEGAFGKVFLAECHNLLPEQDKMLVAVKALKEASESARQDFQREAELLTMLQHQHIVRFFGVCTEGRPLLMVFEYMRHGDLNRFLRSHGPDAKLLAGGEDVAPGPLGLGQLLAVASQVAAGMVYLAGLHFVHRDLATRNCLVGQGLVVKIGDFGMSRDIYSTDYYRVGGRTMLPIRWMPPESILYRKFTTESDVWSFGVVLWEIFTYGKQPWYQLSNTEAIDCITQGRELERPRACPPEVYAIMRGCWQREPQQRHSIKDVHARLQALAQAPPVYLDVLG
T2 sequence (Q16288 32-839): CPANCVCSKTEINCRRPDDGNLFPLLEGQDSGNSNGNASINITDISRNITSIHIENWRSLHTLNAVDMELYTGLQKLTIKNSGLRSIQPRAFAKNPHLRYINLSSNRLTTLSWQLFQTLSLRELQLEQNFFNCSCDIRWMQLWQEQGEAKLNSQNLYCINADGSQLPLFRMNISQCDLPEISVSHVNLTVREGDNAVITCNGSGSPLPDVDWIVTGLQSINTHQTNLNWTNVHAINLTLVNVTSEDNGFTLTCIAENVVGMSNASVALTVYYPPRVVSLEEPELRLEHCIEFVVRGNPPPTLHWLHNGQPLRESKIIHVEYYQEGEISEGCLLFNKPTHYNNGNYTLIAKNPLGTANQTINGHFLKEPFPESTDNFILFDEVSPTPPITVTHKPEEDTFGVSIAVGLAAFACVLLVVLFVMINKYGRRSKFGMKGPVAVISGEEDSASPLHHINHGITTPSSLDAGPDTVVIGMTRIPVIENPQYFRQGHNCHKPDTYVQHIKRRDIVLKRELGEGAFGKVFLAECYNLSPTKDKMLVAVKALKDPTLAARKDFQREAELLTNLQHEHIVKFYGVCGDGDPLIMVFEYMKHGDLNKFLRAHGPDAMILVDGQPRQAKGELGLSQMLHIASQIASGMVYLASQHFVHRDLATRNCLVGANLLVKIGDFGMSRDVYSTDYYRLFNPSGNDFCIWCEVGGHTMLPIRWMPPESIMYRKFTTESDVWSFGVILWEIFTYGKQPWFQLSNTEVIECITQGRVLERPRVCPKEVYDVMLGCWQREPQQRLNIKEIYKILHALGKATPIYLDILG
T4 sequence (P04629 33-796 G595R): as the sequence (P04629 33-796) above, with G563R counted along it
T3 sequence (P04629 33-796 G667C): as the sequence (P04629 33-796) above, with G635C counted along it
T1 sequence (Q16620 32-822): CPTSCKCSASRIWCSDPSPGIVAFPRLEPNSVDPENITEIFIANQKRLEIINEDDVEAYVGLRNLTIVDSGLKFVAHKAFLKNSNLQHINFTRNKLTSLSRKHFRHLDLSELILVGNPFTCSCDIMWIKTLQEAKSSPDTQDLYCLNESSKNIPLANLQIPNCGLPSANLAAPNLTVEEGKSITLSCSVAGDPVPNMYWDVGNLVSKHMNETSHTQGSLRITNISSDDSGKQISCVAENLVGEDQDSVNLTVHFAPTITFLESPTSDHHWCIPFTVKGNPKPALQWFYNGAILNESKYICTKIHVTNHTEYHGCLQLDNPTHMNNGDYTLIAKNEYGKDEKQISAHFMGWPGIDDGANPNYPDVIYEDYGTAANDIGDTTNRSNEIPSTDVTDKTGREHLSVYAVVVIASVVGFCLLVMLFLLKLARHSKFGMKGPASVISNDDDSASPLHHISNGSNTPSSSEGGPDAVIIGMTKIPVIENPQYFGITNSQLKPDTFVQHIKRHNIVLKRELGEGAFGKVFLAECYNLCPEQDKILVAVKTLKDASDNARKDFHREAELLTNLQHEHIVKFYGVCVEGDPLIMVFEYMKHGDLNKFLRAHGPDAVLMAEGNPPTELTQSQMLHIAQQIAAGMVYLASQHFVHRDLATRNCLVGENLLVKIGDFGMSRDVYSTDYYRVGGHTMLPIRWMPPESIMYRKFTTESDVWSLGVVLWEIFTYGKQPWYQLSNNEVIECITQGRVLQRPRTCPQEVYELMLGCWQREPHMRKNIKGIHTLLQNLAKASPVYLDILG

IC50 [1]	IC50 [2]	IC50 [3]	IC50 [4]	IC50 [5]	Structure (SMILES)
< 1 nM	< 10 nM	< 1 nM	< 1 nM	< 1 nM	CN1CC(n2cc(-c3c(Cl)cnc4ccc(N5C[C@@H](F)C[C@@H]5c5cc(F)ccc5F)nc34)cn2)C1 [Example 23]
< 10 nM	< 10 nM	< 10 nM	< 10 nM	< 10 nM	Fc1ccc(F)c([C@H]2CCCN2c2ccc3ncc(F)c(-c4cnn(C5CNC5)c4)c3n2)c1 [Example 28, (R)-8-(1-(azetidin-3-yl)-1H-pyrazol-4-yl)-2-(2-(2,5-difluorophenyl)pyrrolidin-1-yl)-7-fluoro-1,5-naphthyridine]
< 1 nM	< 1 nM	< 10 nM	< 10 nM	< 1 nM	Fc1ccc(F)c([C@H]2C[C@H](F)CN2c2ccc3ncc(Cl)c(-c4cn(C5CCNCC5)nn4)c3n2)c1 [Example 67, 7-chloro-2-((2R,4S)-2-(2,5-difluorophenyl)-4-fluoropyrrolidin-1-yl)-8-(1-(piperidin-4-yl)-2H-1,2,3-triazol-4-yl)-1,5-naphthyridine]
< 1 nM	< 1 nM	< 10 nM	< 1 nM	< 10 nM	CS(=O)(=O)n1cc(-c2c(Cl)cnc3ccc(N4C[C@@H](F)C[C@@H]4c4cc(F)ccc4F)nc23)cn1 [Example 25, 7-chloro-2-((2R,4S)-2-(2,5-difluorophenyl)-4-fluoropyrrolidin-1-yl)-8-(1-(methylsulfonyl)-1H-pyrazol-4-yl)-1,5-naphthyridine]
< 10 nM	< 10 nM	< 10 nM	< 10 nM	< 1 nM	O[C@H]1CCN(c2ccc(-c3c(Cl)cnc4ccc(N5C[C@@H](F)C[C@@H]5c5cc(F)ccc5F)nc34)cn2)C1 [Example 66, (S)-1-(5-(3-chloro-6-((2R,4S)-2-(2,5-difluorophenyl)-4-fluoropyrrolidin-1-yl)-1,5-naphthyridin-4-yl)pyridin-2-yl)pyrrolidin-3-ol]
< 1 nM	< 1 nM	< 10 nM	< 10 nM	< 1 nM	Fc1ccc(F)c([C@H]2C[C@H](F)CN2c2ccc3ncc(Cl)c(-c4nnc(C5CCNCC5)o4)c3n2)c1 [Example 42, 2-(3-Chloro-6-((2R,4S)-2-(2,5-difluorophenyl)-4-fluoropyrrolidin-1-yl)-1,5-naphthyridin-4-yl)-5-(piperidin-4-yl)-1,3,4-oxadiazole]
< 1 nM	< 1 nM	< 10 nM	< 1 nM	< 1 nM	O=S(=O)(Nc1ccnc2ccc(N3C[C@@H](F)C[C@@H]3c3cc(F)ccc3F)nc12)N1CC[C@H](O)C1 [Example 69, (S)—N-(6-((2R,4S)-2-(2,5-difluorophenyl)-4-fluoropyrrolidin-1-yl)-1,5-naphthyridin-4-yl)-3-hydroxypyrrolidin-1-sulfonamide]
< 10 nM	< 10 nM	< 50 nM	< 1 nM	< 1 nM	O[C@H]1CCN(c2nc(-c3c(F)cnc4ccc(N5C[C@@H](F)C[C@@H]5c5cc(F)ccc5F)nc34)no2)C1 [Example 77, (S)-1-(3-(6-((2R,4S)-2-(2,5-difluorophenyl)-4-fluoropyrrolidin-1-yl)-3-fluoro-1,5-naphthyridin-4-yl)-1,2,4-oxadiazol-5-yl)pyrrolidin-3-ol]
< 10 nM	< 1 nM	< 10 nM	< 10 nM	< 1 nM	Fc1ccc(F)c([C@H]2C[C@H](F)CN2c2ccc3ncc(Cl)c(-c4cnn([C@@H]5CCNC5)c4)c3n2)c1 [Example 56, 7-chloro-2-((2R,4S)-2-(2,5-difluorophenyl)-4-fluoropyrrolidin-1-yl)-8-(1-((R)-pyrrolidin-3-yl)-1H-pyrazol-4-yl)-1,5-naphthyridine]
< 1 nM	< 1 nM	< 10 nM	< 10 nM	< 1 nM	CC1(C)CC(n2cc(-c3ccnc4ccc(N5C[C@@H](F)C[C@@H]5c5cc(F)ccc5F)nc34)cn2)CCN1 (stereo partly drawn) [Example 18, 2-((2R,4S)-2-(2,5-difluorophenyl)-4-fluoropyrrolidin-1-yl)-8-(1-(2,2-dimethylpiperidin-4-yl)-1H-pyrazol-4-yl)-1,5-naphthyridine]
< 1 nM	< 1 nM	< 1 nM	< 1 nM	< 1 nM	Fc1ccc(F)c([C@H]2C[C@H](F)CN2c2ccc3nccc(-c4cnn(C5CCNCC5)c4)c3n2)c1 [Example 11, 2-((2R,4S)-2-(2,5-difluorophenyl)-4-fluoropyrrolidin-1-yl)-8-(1-(piperidin-4-yl)-1H-pyrizol-4-yl)-1,5-naphthyridine]
< 10 nM	< 10 nM	< 50 nM	< 10 nM	< 1 nM	NC(=O)c1cnc2ccc(N3C[C@@H](F)C[C@@H]3c3cc(F)ccc3F)nc2c1-c1cnn(C2CCNCC2)c1 [Example 37, 6-((2R,4S)-2-(2,5-difluorophenyl)-4-fluoropyrrolidin-1-yl)-4-(1-(piperidin-4-yl)-1H-pyrazol-4-yl)-1,5-naphthyridin-3-carboxamide]
< 10 nM	< 10 nM	< 10 nM	< 10 nM	< 1 nM	Fc1ccc(F)c([C@H]2C[C@H](F)CN2c2ccc3ncc(Cl)c(-c4cnc(C5CCNCC5)s4)c3n2)c1 [Example 50, 5-(3-Chloro-6-((2R,4S)-2-(2,5-difluorophenyl)-4-fluoropyrrolidin-1-yl)-1,5-naphthyridin-4-yl)-2-(piperidin-4-yl)thiazole]
< 1 nM	< 1 nM	< 1 nM	< 1 nM	< 1 nM	O[C@@H]1CN=C(Nc2ccnc3ccc(N4C[C@@H](F)C[C@@H]4c4cc(F)ccc4F)nc23)OC1 [Example 98, (R)-2-((6-((2R,4S)-2-(2,5-difluorophenyl)-4-fluoropyrrolidin-1-yl)-1,5-naphthyridin-4-yl)amino)-5,6-dihydro-4H-1,3-oxazin-5-ol]
< 1 nM	< 1 nM	< 10 nM	< 10 nM	< 1 nM	CC(C)(O)Cn1cc(-c2c(Cl)cnc3ccc(N4C[C@@H](F)C[C@@H]4c4cc(F)ccc4F)nc23)cn1 [Example 35, 1-(4-(3-chloro-6-((2R,4S)-2-(2,5-difluorophenyl)-4-fluoropyrrolidin-1-yl)-1,5-naphthyridin-4-yl)-1H-pyrazol-1-yl)-2-methylpropan-2-ol]
< 1 nM	< 1 nM	< 10 nM	< 10 nM	< 1 nM	NC(=O)CN1CCC(n2cc(-c3c(F)cnc4ccc(N5C[C@@H](F)C[C@@H]5c5cc(F)ccc5F)nc34)cn2)CC1 [Example 74, 2-(4-(4-(6-((2R,4S)-2-(2,5-difluorophenyl)-4-fluoropyrrolidin-1-yl)-3-fluoro-1,5-naphthyridin-4-yl)-1H-pyrazol-1-yl)piperidin-1-yl)acetamide]
< 50 nM	< 1 nM	< 10 nM	< 10 nM	< 1 nM	Fc1ccc(F)c([C@H]2C[C@H](F)CN2c2ccc3ncnc(-c4cnn(CC5CNC5)c4)c3n2)c1 [Example 59, 4-(1-(azetidin-3-ylmethyl)-1H-pyrazol-4-yl)-6-((2R,4S)-2-(2,5-difluorophenyl)-4-fluoropyrrolidin-1-yl)pyrido[3,2-d]pyrimidine HCOOH salt]
